The results in this text go back to ChEMBL document CHEMBL4229345, “Inhibition of trypanosome alternative oxidase without its N-terminal mitochondrial targeting signal (ΔMTS-TAO) by cationic and non-cationic 4-hydroxybenzoate and 4-alkoxybenzaldehyde derivatives active against T. brucei and T. congolense” (Eur J Med Chem, 2018).

A value given as a limit tells only on which side of the number the result lay.

Data set [1] in a line: Resistance factor, ratio of EC50 for bloodstream trypomastigote stage of pentamidine/diminazene/melaminophenyl arsenical resistant Trypanosoma brucei B48 to EC50 for bloodstream trypomastigote stage of wild-type Trypanosoma brucei brucei Lister 427. Format: functional.
A short description of data set [2]: Selectivity index, ratio of CC50 for HFF cells to EC50 for bloodstream trypomastigote stage of wild-type Trypanosoma brucei brucei Lister 427. The class given is toxicity. As to conditions: human, read-out: Ratio CC50/EC50.
Data set [3] relates to Trypanosoma brucei brucei. Description: Anti-parasitic activity against bloodstream trypomastigote stage of wild-type Trypanosoma brucei brucei Lister 427 after 48 hrs in presence of 5 mM glycerol by resazurin-based assay. Format: functional, organism-based. As to conditions: Lister 427, 48 h. In general terms: Alamar Blue is a resazurin reagent that responds to reducing activity.

Data set [4] in a line: Inhibition of recombinant N-terminal His6 tagged SUMO-fused Trypanosoma brucei brucei TC221 TAO MTS deletion mutant expressed in Escherichia coli FN102 preincubated for 2 mins followed by ubiquinol-1 addition measured over 2 mins by double beam-dual wavelength UV-spectrophotometry.
Data set [5] has as its system Trypanosoma brucei brucei. Description: Anti-parasitic activity against bloodstream trypomastigote stage of Trypanosoma brucei brucei with AQP2/3-dd knock out after 48 hrs by resazurin-based assay. The class given is functional, organism-based.
A short description of data set [6]: Cytotoxicity against HEK cells assessed as reduction in cell viability after 30 hrs by resazurin-based assay. As to conditions: human.
For data set [7], the system named is Trypanosoma brucei brucei. In words: Resistance factor, ratio of EC50 for bloodstream trypomastigote stage of wild-type Trypanosoma brucei brucei Lister 427 in presence of 5 mM glycerol to EC50 for bloodstream trypomastigote stage of wild-type Trypanosoma brucei brucei Lister 427. The class given is functional.
Data set [8] has as its system Trypanosoma brucei brucei. In words: Anti-parasitic activity against bloodstream trypomastigote stage of Trypanosoma brucei brucei with AQP triple knock out after 48 hrs by resazurin-based assay. Format: functional, organism-based.
The subject of data set [9] is Trypanosoma brucei brucei. Description: Resistance factor, ratio of EC50 for bloodstream trypomastigote stage of Trypanosoma brucei brucei with AQP2/3-dd knock out to EC50 for bloodstream trypomastigote stage of wild-type Trypanosoma brucei brucei Lister 427. Format: functional.
Data set [10] can be described thus: Selectivity index, ratio of CC50 for HEK cells to EC50 for bloodstream form of Trypanosoma congolense IL3000. The class given is toxicity. As to conditions: human, read-out: Ratio CC50/EC50.
Data set [11] concerns Trypanosoma brucei brucei. Description: Resistance factor, ratio of EC50 for bloodstream trypomastigote stage of Trypanosoma brucei brucei AQP triple knock out to EC50 for bloodstream trypomastigote stage of wild-type Trypanosoma brucei brucei Lister 427. The class given is functional.
Data set [12] can be described thus: Selectivity index, ratio of CC50 for HFF cells to EC50 for bloodstream form of Trypanosoma congolense IL3000. Format: toxicity. As to conditions: human, read-out: Ratio CC50/EC50.
The next data set has as its system Trypanosoma brucei. Description: Anti-parasitic activity against bloodstream trypomastigote stage of pentamidine/diminazene/melaminophenyl arsenical resistant Trypanosoma brucei B48 after 48 hrs by resazurin-based assay. As to conditions: B48, 48 h. The class given is functional, organism-based.
Data set [13] relates to Trypanosoma brucei brucei. Description: Potency index, ratio of diminazene EC50 to test compound EC50 for anti-parasitic activity against bloodstream trypomastigote stage of wild-type Trypanosoma brucei brucei Lister 427. The class given is functional.
A short description of data set [14]: Half life in mouse serum by LC/MS analysis. The class given is ADME, cell-free.
Data set [15] is described as follows: Cytotoxicity against HFF cells assessed as reduction in cell viability after 30 hrs by resazurin-based assay. As to conditions: human.
In data set [16] the test system is Trypanosoma congolense. Description: Anti-parasitic activity against bloodstream form of Trypanosoma congolense IL3000 after 48 hrs by resazurin-based assay. Format: functional, organism-based. As to conditions: IL3000, 48 h.
For data set [17], the system named is Trypanosoma congolense. Description: Potency index, ratio of diminazene EC50 to test compound EC50 for anti-parasitic activity against bloodstream form of Trypanosoma congolense IL3000. Format: functional.
For data set [18], the system named is Trypanosoma brucei brucei. Description: Anti-parasitic activity against bloodstream trypomastigote stage of wild-type Trypanosoma brucei brucei Lister 427 after 48 hrs by resazurin-based assay. The class given is functional, organism-based. As to conditions: Lister 427, 48 h.
Data set [19] can be described thus: Competitive inhibition of recombinant N-terminal His6 tagged SUMO-fused Trypanosoma brucei brucei TC221 TAO MTS deletion mutant expressed in Escherichia coli FN102 preincubated for 2 mins followed by ubiquinol-1 addition measured over 2 mins by Lineweaver-Burk plot analysis.
Data set [20] can be described thus: Stability in mouse serum assessed as compound hydrolysis after 24 hrs by LC/MS analysis. Format: ADME, cell-free. As to conditions: read-out: Drug degradation.
Data set [21] can be described thus: Stability in mouse serum assessed as compound hydrolysis after 1 hr by LC/MS analysis. Format: ADME, cell-free. As to conditions: read-out: Drug degradation.
Data set [22] can be described thus: Selectivity index, ratio of CC50 for HEK cells to EC50 for bloodstream trypomastigote stage of wild-type Trypanosoma brucei brucei Lister 427. The class given is toxicity. As to conditions: human, read-out: Ratio CC50/EC50.
A short description of data set [23]: Noncompetitive inhibition of recombinant N-terminal His6 tagged SUMO-fused Trypanosoma brucei brucei TC221 TAO MTS deletion mutant expressed in Escherichia coli FN102 preincubated for 2 mins followed by ubiquinol-1 addition measured over 2 mins by Lineweaver-Burk plot analysis.

By EC50 is commonly meant the concentration giving half of the maximal effect. A word on the IC50: it is the concentration at which inhibition is half-maximal. By CC50 is commonly meant the concentration giving 50% cytotoxicity. In general, half-life refers to how long it takes for the measured level to halve. A low value points to rapid decline. Broadly, the Ki is a dissociation constant, usually derived from enzyme kinetics or from competition with a known ligand.

Turning to `O=C(OCCCCCCCCCCCCBr)c1ccc(O)cc1O`, the Ratio EC50 in data set [1] was found to be 1.03; in data set [7], 0.42; in data set [9] it was 0.69; in data set [11], 0.32. Moreover, the figures for the selectivity ratio in data set [2] and in [10] were above 27 and above 7.7, respectively. In addition, the EC50 stood at 6.2 µM in data set [3], 10 µM in data set [5] and 4.7 µM in data set [8]. The IC50 in data set [4] was 0.0174 µM. The CC50 at 30 h in data set [6] was above 400 µM.
For `O=C(OCCCCCCCCCCCCCC[P+](c1ccccc1)(c1ccccc1)c1ccccc1)c1ccc(O)cc1F.[Br-]`, the Ratio EC50 in data set [1] was 1.3; in data set [13], 5 - 40; in [7], 0.66; with Trypanosoma congolense [17], 5 - 40; in [9] it was 0.43; in data set [11], 0.64. Moreover, the selectivity ratio in [12] was above 11000; in [2], above 344000. Further, the EC50 amounted to 0.00075 µM in the data set on Trypanosoma brucei; 0.00039 µM in [3]; 0.00025 µM in data set [5]; 0.018 µM with Trypanosoma congolense [16]; 0.00037 µM in data set [8]; 0.00058 µM in data set [18]. In addition, the IC50 in data set [4] stood at 0.03 µM. This molecule also registered a half-life in [14] below 15 min. In addition, the CC50 at 30 h in data set [15] is above 200 µM.
For the molecule `Cc1cc(O)ccc1C(=O)OCCCCCCCCCCCCCC[n+]1cccc2ccccc21.[Br-]`, the Ratio EC50 in data set [1] stood at 1.4; in data set [7], 0.69; in data set [9], 0.47; in data set [11], 0.41. In addition, the selectivity ratio in data set [12] is above 110; in data set [2], above 952. Also, the EC50 in the data set on Trypanosoma brucei came out at 0.3 µM; in data set [3], 0.145 µM; in data set [5], 0.1 µM; with Trypanosoma congolense [16], 1.82 µM; in data set [8], 0.086 µM; in data set [18], 0.21 µM. The Ki in data set [19] is 0.0529 µM. The IC50 in data set [4] is 0.03 µM. In [20], the metabolised at 24 h was above 99%. In data set [14], this molecule yielded a half-life of 30 min. In addition, the CC50 at 30 h in [15] is above 200 µM.
As to `O=C(OCCCCCCCCCCCCCC[n+]1cccc2ccccc21)c1ccc(O)cc1O`, the IC50 in data set [4] is 1.36 µM. Moreover, the metabolised at 1 h in data set [21] amounted to 50%.
For `O=C(OCCCCCCCCCCOC(=O)c1ccc(O)cc1O)c1ccc(O)cc1O`, the Ratio EC50 in [1] amounted to 0.85; in data set [7] it was 0.25; in data set [9], 0.5; in data set [11], 0.14. For the same molecule, the EC50 was 41.6 µM with Trypanosoma brucei; 12.2 µM in [3]; 24.6 µM in data set [5]; above 100 µM in the data set with Trypanosoma congolense [16]; 7.1 µM in data set [8]; 49 µM in [18]. Besides, in data set [22], the selectivity ratio is above 8. Further, the IC50 in [4] was 0.0069 µM. For the same molecule, the CC50 at 30 h in [6] is above 400 µM. For the same molecule, the Ki in [23] is 0.0341 µM.
For the molecule `O=COCCCCCCCCCCCCCCCCOC(=O)c1ccc(O)cc1O`, the Ratio EC50 in [1] was found to be 1.1; in data set [7], 0.43; in data set [9], 0.42; in data set [11], 0.11. Besides, the EC50 in the data set with Trypanosoma brucei was 13 µM; in data set [3], 5.1 µM; in [5], 5 µM; in the data set on Trypanosoma congolense [16] it was above 100 µM; in data set [8] it was 1.27 µM; in data set [18] it was 11.9 µM. In addition, the selectivity ratio in data set [22] was above 34. Also, the IC50 in [4] is 0.0144 µM. In data set [6], the CC50 at 30 h is above 400 µM. Further, the Ki in [23] is 0.0714 µM.
With `O=C(OCCCCCCCCCCCCOC(=O)c1ccc(O)cc1O)c1ccc(O)cc1O`, the Ratio EC50 in data set [1] is 1; in data set [7], 0.41; in data set [9], 0.81; in data set [11], 0.27. Also, the concentration giving a half-maximal response (EC50) with Trypanosoma brucei is 33.6 µM; in [3], 13.6 µM; in [5], 26.7 µM; with Trypanosoma congolense [16], above 100 µM; in [8], 8.9 µM; in data set [18], 32.9 µM. For the same molecule, the selectivity ratio in [22] is above 12. The IC50 in [4] is 0.007 µM. Further, the CC50 at 30 h in [6] was above 400 µM.
In the case of `Cc1cc(O)ccc1C(=O)OCCCCCCCCCCCCCCOC=O`, the Ratio EC50 in data set [1] was 1.1; in [7] it was 1.92; in data set [9], 0.34; in data set [11], 0.45. For the same molecule, the selectivity ratio in [2] was above 48. Besides, the 50% effective concentration (EC50) in the data set on Trypanosoma brucei was determined as 4.44 µM; in data set [3], 7.8 µM; in [5] it was 1.4 µM; in data set [8], 1.8 µM; in [18], 4.1 µM. Besides, in data set [19], the Ki was 0.0041 µM. Further, the IC50 in data set [4] was 0.0011 µM. For the same molecule, the CC50 at 30 h in [15] is above 200 µM.
As to `O=C(OCCCCCCCCCCCCCCCCOC(=O)c1ccc(O)cc1O)c1ccc(O)cc1O`, the Ratio EC50 in [1] came to 1.2; in data set [7] it was 0.46; in data set [9], 0.54; in data set [11], 0.35. Further, the EC50 was 31.9 µM in the data set on Trypanosoma brucei; 12.4 µM in data set [3]; 14.3 µM in [5]; above 100 µM in the data set on Trypanosoma congolense [16]; 9.3 µM in [8]; 26.7 µM in [18]. Further, the selectivity ratio in data set [22] is above 15. Besides, the IC50 in data set [4] was found to be 0.0123 µM. Besides, the CC50 at 30 h in [6] was above 400 µM.
